Experimental data taken from patent US12171777B2, “Methods of making a cyclic dinucleotide” (TAKEDA PHARMACEUTICAL COMPANY LIMITED, priority 2016, dated 2024).
Where a name gives a salt, the structure may show the parent alone.

Assays:
[1] = Human plasma stability assay; type: in vitro ADME; settings: elimination rate constant k; heparinized human plasma, 37° C., 0-24 hours
Method: The compound was incubated in heparinized human plasma at 37° C. for 0, 1, 2, 4, 8 and 24 hours, and the change in compound concentration was measured by LC/MS/MS method. The elimination rate constant (=k(/h)) was calculated based on the fitted curve assuming the exponential decrease of concentration as follows; concentration at time x=initial concentration*exp(−k*x).

CT-26 mouse tumor cells = experiment: Anti-tumor effect in CT-26 syngeneic mice model; type: in vivo; settings: Balb/C mice; intravenous q3dx3; Ex3a 30 mg/kg, Ex14 1.0 mg/kg
Method: (§1) Ex14 and Ex3a were tested in syngeneic tumor models in mice. […] See FIG. 8 and FIG. 9 for the anti-tumor effect colon carcinoma CT-26 syngeneic mice model, and FIG. 10 and FIG. 11 for the anti-tumor effect in the […] B16F10 syngeneic mice model.
(§2) 8×10^4 B16F10 and 2×10^5 CT-26 mouse tumor cells were subcutaneously implanted in the flank of female C57BL/6 (B16F10) and Balb/C (CT-26) mice (n=7 per group). Vehicle (1×PBS), compound Ex3a (30 mg/kg) or Ex14 (1.0 mg/kg) were intravenously administered (final volume of 100 μL) to tumor-bearing mice once the tumor volume has reached 100 mm^3 (Day 0). Vehicle, Ex3a or Ex14 were given every 3 days for a total of 3 doses (q3dx3). Tumor and body weight measurements were taken three times per week using vernier calipers and mettler scale, respectively. Tumor volumes were determined by multiplying the square of the width (‘W’), measured along the short axis of the tumor, by one-half the length (‘L’) measured along the […]

B16F10 mouse tumor cells = experiment: Anti-tumor effect in B16F10 syngeneic mice model; type: in vivo; settings: C57BL/6 mice; intravenous q3dx3; Ex3a 30 mg/kg, Ex14 1.0 mg/kg
Method: as §1, §2

[2] = biological target: WT STING (human wild-type TMEM173 (H232R)) (Homo sapiens (Human), UniProt Q86WV6, H232R); experiment: Reporter Gene Assay (2): ISRE NanoLuc reporter in STING-transfected 293T cells, with digitonin; type: cell-based; settings: HEK-293T, 2′,3′-cGAMP (30 μM) = 100%, solvent = 0%, read-out: activity level against WT STING of test compound (30 μM)
Sequence of WT STING (human wild-type TMEM173 (H232R)) (Q86WV6 whole entry H232R): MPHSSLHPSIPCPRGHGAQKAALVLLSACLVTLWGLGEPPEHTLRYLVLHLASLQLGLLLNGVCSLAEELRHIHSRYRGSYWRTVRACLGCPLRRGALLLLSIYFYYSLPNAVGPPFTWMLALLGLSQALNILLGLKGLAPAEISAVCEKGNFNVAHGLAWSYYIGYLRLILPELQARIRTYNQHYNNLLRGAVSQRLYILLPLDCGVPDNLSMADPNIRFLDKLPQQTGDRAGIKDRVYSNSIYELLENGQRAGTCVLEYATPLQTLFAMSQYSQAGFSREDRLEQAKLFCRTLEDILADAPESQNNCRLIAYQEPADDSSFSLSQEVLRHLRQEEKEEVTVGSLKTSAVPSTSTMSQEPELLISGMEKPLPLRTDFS
Method: The culture solution was removed, and the test compound diluted with assay buffer (50 mM HEPES pH 7.0, 100 mM KCl, 3 mM MgCl2, 85 mM Sucrose, 0.1 mM DTT, 0.2% BSA, 1 mM ATP, 0.1 mM GTP, 10 μg/ml Digitonin) was added thereto by 15 μL/well. The cells were cultured at 37° C. under 5% CO2 condition for 30 min, and the assay buffer was removed. Dulbecco's Modified Eagle's Medium (DMEM) (Wako Pure Chemical Industries, Ltd.) containing 10% fetal bovine serum was added thereto by 20 μL/well, and the cells were cultured at 37° C. under 5°%° CO2 condition for 4 hr. Luminescence signals derived from firefly luciferase and NanoLuc Luciferase were each measured using EnVision (PerkinElmer, Waltham, MA, US) according to Nano-Glo Dual-Luciferase Reporter Assay System (Promega, Fitchburg, WI, US) protocol. The ratio of the count of NanoLuc Luciferase divided by the count of firefly luciferase was used for calculation. The activity level of each test compound was calculated when the ratio in the cells treated with 2′,3′-cGAMP (30 μM) was considered as 100%, and the ratio in the cells treated with the solvent was considered as 0%.

Structure (SMILES) | Human plasma stability [1] | anti-tumor effect, CT-26 syngeneic mice model (CT-26 mouse tumor cells) | anti-tumor effect, B16F10 syngeneic mice model (B16F10 mouse tumor cells) | activation at 30 µM [2]
Nc1ncnc2c1ncn2[C@@H]1O[C@@H]2COP(=O)(O)O[C@@H]3[C@H](O)[C@@H](COP(=O)(S)O[C@H]2[C@H]1F)O[C@H]3n1cc(F)c2c(=O)[nH]cnc21 (stereo partly drawn) [Ex3a, disodium (5R,7R,8R,12aR,14R,15R,15aR,16R)-14-(6-amino-9H-purin-9-yl)-15-fluoro-7-(5-fluoro-4-oxo-3,4-dihydro-7H-pyrrolo[2,3-d]pyrimidin-7-yl)-16-hydroxy-2-sulfidooctahydro-12H-5,8-methanofuro[3,2-1][1,3,6,9,11,2,10]pentaoxadiphosphacyclotetradecin-10-olate 2,10-dioxide] | 0.58 h⁻¹ | anti-tumor effects were observed | anti-tumor effects were observed | –
Nc1ncnc2c1ncn2[C@@H]1O[C@@H]2COP(=O)(S)O[C@@H]3[C@H](O)[C@@H](COP(=O)(S)O[C@H]2[C@H]1O)O[C@H]3n1cc(F)c2c(=O)[nH]cnc21 (stereo partly drawn) [Example 5, 7-((5R,7R,8R,12aR,14R,15R,15aS,16R)-14-(6-amino-9H-purin-9-yl)-15,16-dihydroxy-2,10-dioxido-2,10-disulfanyloctahydro-12H-5,8-methanofuro[3,2-1][1,3,6,9,11,2,10]pentaoxadiphosphacyclotetradecin-7-yl)-5-fluoro-3,7-dihydro-4H-pyrrolo[2,3-d]pyrimidin-4-one di-triethylamine salt (Optical Isomer)] | <0.01 h⁻¹ | – | – | 107%
Nc1ncnc2c1ncn2[C@@H]1O[C@@H]2COP(=O)(S)O[C@@H]3[C@H](O)[C@@H](COP(=O)(S)O[C@H]2[C@H]1F)O[C@H]3n1cc(F)c2c(=O)[nH]cnc21 (stereo partly drawn) [Example 14, 7-((2R,5R,7R,8R,10R,12aR,14R,15R,15aR,16R)-14-(6-amino-9H-purin-9-yl)-15-fluoro-16-hydroxy-2,10-dioxido-2,10-disulfanyloctahydro-12H-5,8-methanofuro[3,2-1][1,3,6,9,11,2,10]pentaoxadiphosphacyclotetradecin-7-yl)-5-fluoro-3,7-dihydro-4H-pyrrolo[2,3-d]pyrimidin-4-one di sodium salt] | <0.01 h⁻¹ | anti-tumor effects were observed | anti-tumor effects were observed | –
